In patent publication US7888363B2, “Viral polymerase inhibitors” (Boehringer Ingelheim International GmbH, priority 2003, dated 2011):

What follows are molecules tested against hepatitis C virus RNA dependant polymerase (NS5B) (Hepatitis C virus genotype 1b, UniProt P26663) (assay: Inhibition of NS5B RNA dependent RNA polymerase activity). Settings: Table 1; HCV NS5B polymerase.
Format: biochemical
Procedure: A suitable assay is described in the examples.
Inhibition of NS5B RNA Dependent RNA Polymerase Activity
The compounds of the invention were tested for inhibitory activity against the hepatitis C virus RNA dependant polymerase (NS5B), according to protocol described in WO 03/010141

Chain of hepatitis C virus RNA dependant polymerase (NS5B) (P26663 2420-3010): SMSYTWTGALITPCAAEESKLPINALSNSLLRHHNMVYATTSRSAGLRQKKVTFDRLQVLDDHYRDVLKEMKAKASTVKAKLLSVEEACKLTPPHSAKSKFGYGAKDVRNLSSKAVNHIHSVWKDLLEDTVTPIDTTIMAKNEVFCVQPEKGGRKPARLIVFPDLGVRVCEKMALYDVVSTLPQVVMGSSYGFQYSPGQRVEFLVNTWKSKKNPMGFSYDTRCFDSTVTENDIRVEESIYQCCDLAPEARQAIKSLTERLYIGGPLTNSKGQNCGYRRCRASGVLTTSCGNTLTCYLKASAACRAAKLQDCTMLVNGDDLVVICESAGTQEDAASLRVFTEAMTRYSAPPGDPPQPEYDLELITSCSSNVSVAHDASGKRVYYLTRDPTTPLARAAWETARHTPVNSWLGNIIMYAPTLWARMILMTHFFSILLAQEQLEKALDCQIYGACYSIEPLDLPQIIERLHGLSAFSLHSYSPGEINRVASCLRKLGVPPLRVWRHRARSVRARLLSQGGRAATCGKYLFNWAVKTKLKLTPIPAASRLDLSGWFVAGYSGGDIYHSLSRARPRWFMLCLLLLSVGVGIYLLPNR

Structure (SMILES) | IC50 [nM]
CC(C)[C@@H](C(=O)O)N(C)C(=O)Cn1c(-c2ccoc2)c(C2CCCCC2)c2ccc(C(=O)O)cc21 [Example 1129] | < 200
O=C(Cn1c(-c2ccoc2)c(C2CCCCC2)c2ccc(C(=O)O)cc21)NCCCN1CCOCC1 [Example 1009] | 200 to 1000
CN(C(=O)Cn1c(-c2ccoc2)c(C2CCCCC2)c2ccc(C(=O)O)cc21)C1CCCCC1 [Example 1092] | < 200
COCCNC(=O)Cn1c(-c2ccoc2)c(C2CCCCC2)c2ccc(C(=O)O)cc21 [Example 1107] | 200 to 1000
CS(=O)(=O)c1ccc(CNC(=O)Cn2c(-c3ccoc3)c(C3CCCCC3)c3ccc(C(=O)O)cc32)cc1 [Example 1127] | < 200
CN(CC(=O)O)C(=O)Cn1c(-c2ccc(Br)cn2)c(C2CCCCC2)c2ccc(C(=O)O)cc21 [Example 1138] | 200 to 1000
CCN(CCOC)C(=O)Cn1c(-c2ccoc2)c(C2CCCCC2)c2ccc(C(=O)O)cc21 [Example 1017] | < 200
CN1CCN(C(=O)Cn2c(-c3ccccn3)c(C3CCCCC3)c3ccc(C(=O)O)cc32)CC1 [Example 1082] | < 200
CN(CCO)C(=O)Cn1c(-c2ccoc2)c(C2CCCCC2)c2ccc(C(=O)O)cc21 [Example 1090] | < 200
O=C(O)c1ccc2c(C3CCCCC3)c(-c3csc4ccccc34)n(CC(=O)N3CCOCC3)c2c1 [Example 1047] | 1000 to 10000
O=C(O)c1ccc2c(C3CCCCC3)c(-c3ccoc3)n(CC(=O)N3CCC[C@H]3C(=O)O)c2c1 [Example 1066] | < 200
O=C(O)c1ccc2c(C3CCCC3)c(-c3ccccn3)n(CC(=O)N3CCCCC3)c2c1 [Example 1087] | 200 to 1000
CC(C)NC(=O)Cn1c(-c2cccs2)c(C2CCCCC2)c2ccc(C(=O)O)cc21 [Example 1036] | 200 to 1000
O=C(O)c1ccc2c(C3CCCCC3)c(-c3ccoc3)n(CC(=O)N3C[C@@H](O)C[C@H]3C(=O)O)c2c1 [Example 1128] | < 200
CCN(CC)CCN(C)C(=O)Cn1c(-c2ccoc2)c(C2CCCCC2)c2ccc(C(=O)O)cc21 [Example 1021] | < 200
O=C(O)c1ccc2c(C3CCCCC3)c(-c3ccsc3)n(CC(=O)N3CCC(N4CCCC4)CC3)c2c1 [Example 1037] | < 200
CCN(Cc1ccncc1)C(=O)Cn1c(-c2ccoc2)c(C2CCCCC2)c2ccc(C(=O)O)cc21 [Example 1005] | 200 to 1000
CN(C)C(=O)Cn1c(-c2ccccn2)c(C2CCCCC2)c2ccc(C(=O)O)cc21 [Example 1142] | 200 to 1000
O=C(O)c1ccc2c(C3CCCCC3)c(-c3ccoc3)n(CC(=O)N3CCC(N4CCCCC4)CC3)c2c1 [Example 1010] | < 200

Same assay, conditions: Table 2; HCV NS5B polymerase

Structure (SMILES) | IC50 [nM]
O=C(NS(=O)(=O)c1ccccc1)c1ccc2c(C3CCCCC3)c(-c3ccoc3)n(CC(=O)N3CCOCC3)c2c1 [Example 2001] | < 200
CS(=O)(=O)c1ccccc1S(=O)(=O)NC(=O)c1ccc2c(C3CCCCC3)c(-c3ccoc3)n(CC(=O)N3CCOCC3)c2c1 [Example 2038] | < 200
O=C(NS(=O)(=O)c1cc(Cl)sc1Cl)c1ccc2c(C3CCCCC3)c(-c3ccoc3)n(CC(=O)N3CCOCC3)c2c1 [Example 2030] | < 200
O=C(NS(=O)(=O)c1c(Cl)sc(Cl)c1Br)c1ccc2c(C3CCCCC3)c(-c3ccoc3)n(CC(=O)N3CCOCC3)c2c1 [Example 2029] | < 200
O=C(NS(=O)(=O)C(Cl)(Cl)Cl)c1ccc2c(C3CCCCC3)c(-c3ccoc3)n(CC(=O)N3CCOCC3)c2c1 [Example 2045] | < 200
O=C(NS(=O)(=O)c1ccccc1Br)c1ccc2c(C3CCCCC3)c(-c3ccoc3)n(CC(=O)N3CCOCC3)c2c1 [Example 2011] | < 200

Same assay, conditions: Table 3; HCV NS5B polymerase

Structure (SMILES) | IC50 [nM]
CN1CCN(C(=O)Cn2c(-c3ccccn3)c(C3CCCCC3)c3ccc(C(=O)NC(C)(C)C(=O)Nc4ccc(/C=C/C(=O)O)cc4)cc32)CC1 [Example 3006] | < 200

Same assay, conditions: Table 4; class ranges

Structure (SMILES) | IC50 [nM]
CN1CCN(C(=O)Cn2c(-c3ccoc3)c(C3CCCCC3)c3ccc(C(=O)NCCc4ccccn4)cc32)CC1 [Example 4016] | 200 to 1000
O=C(NC1(c2csc(Nc3ccccc3)n2)CCC1)c1ccc2c(C3CCCCC3)c(-c3ccoc3)n(CC(=O)N3CCC(N4CCCC4)CC3)c2c1 [Example 4101] | 200 to 1000
O=C(NCc1ccccn1)c1ccc2c(C3CCCCC3)c(-c3ccoc3)n(CC(=O)N3CCOCC3)c2c1 [Example 4046] | 200 to 1000
O=C(NC(=O)c1ccc2c(C3CCCCC3)c(-c3ccoc3)n(CC(=O)N3CCOCC3)c2c1)c1ccccc1 [Example 4065] | 1000 to 10000
CNC(=O)C1(NC(=O)c2ccc3c(C4CCCCC4)c(-c4ccoc4)n(CC(=O)N4CCOCC4)c3c2)CCCC1 [Example 4096] | < 200
NC(=O)C1(NC(=O)c2ccc3c(C4CCCCC4)c(-c4ccoc4)n(CC(=O)N4CCOCC4)c3c2)COCOC1 [Example 4085] | < 200
O=C(NS(=O)(=O)c1ccccc1)c1ccc2c(C3CCCCC3)c(-c3ccoc3)n(CC(=O)N3CCC(N4CCCC4)CC3)c2c1 [Example 4110] | < 200
O=C(NC1(C(=O)O)COCOC1)c1ccc2c(C3CCCCC3)c(-c3ccoc3)n(CC(=O)N3CCOCC3)c2c1 [Example 4083] | < 200
COc1ccc(CNC(=O)c2ccc3c(C4CCCCC4)c(-c4ccoc4)n(CC(=O)N4CCC(N5CCCC5)CC4)c3c2)cc1OC [Example 4004] | < 200
CC(CNC(=O)c1ccc2c(C3CCCCC3)c(-c3ccoc3)n(CC(=O)N3CCN(C)CC3)c2c1)c1ccccc1 (centres unmarked) [Example 4024] | 1000 to 10000
C[C@@H](NC(=O)c1ccc2c(C3CCCCC3)c(-c3ccoc3)n(CC(=O)N3CCC(N4CCCC4)CC3)c2c1)c1ccccc1 [Example 4005] | < 200
CN(C)C(=O)C(C)(C)NC(=O)c1ccc2c(C3CCCCC3)c(-c3ccoc3)n(CC(=O)N3CCC(N4CCCC4)CC3)c2c1 [Example 4086] | < 200
CN1CCN(C(=O)Cn2c(-c3ccoc3)c(C3CCCCC3)c3ccc(C(=O)NCCC4CCCN4C)cc32)CC1 (centres unmarked) [Example 4009] | 200 to 1000
CC(C)(NC(=O)c1ccc2c(C3CCCCC3)c(-c3ccoc3)n(CC(=O)N3CCOCC3)c2c1)C(N)=O [Example 4077] | < 200

Same assay, conditions: Table 5; HCV NS5B polymerase

Structure (SMILES) | IC50 [nM]
CN(C)C(=O)CCn1c(-c2ccoc2)c(C2CCCCC2)c2ccc(C(=O)O)cc21 [Example 5003] | 1000 to 10000

Same assay, conditions: Table 6; HCV NS5B polymerase

Structure (SMILES) | IC50 [nM]
CN(C)C(=O)Cn1c(-c2ccoc2)c(C2CCCCC2)c2cc(C(=O)O)ccc21 [Example 6003] | 200 to 1000
O=C(O)c1ccc2c(c1)c(C1CCCCC1)c(-c1ccoc1)n2CC(=O)N1CCOCC1 [Example 6001] | 200 to 1000

Same assay, conditions: Table 7; class ranges

Structure (SMILES) | IC50 [nM]
O=C(O)COc1cc2c(C3CCCCC3)c(-c3ccoc3)n(CC(=O)N3CCOCC3)c2cc1C(=O)O [Example 7011] | 1000 to 10000
O=C(NC[C@H]1CC[C@H](C(=O)O)CC1)c1ccc2c(c1)c(C1CCCCC1)c(-c1ccoc1)n2CC(=O)N1CCC(N2CCCC2)CC1 [Example 7054] | 1000 to 10000
O=C(Nc1cccc(-c2ccccc2)c1)c1ccc2c(c1)c(C1CCCCC1)c(-c1ccoc1)n2CC(=O)N1CCC(N2CCCC2)CC1 [Example 7037] | 1000 to 10000
CN1C(C)(C)CC(NC(=O)c2ccc3c(c2)c(C2CCCCC2)c(-c2ccoc2)n3CC(=O)N2CCC(N3CCCC3)CC2)CC1(C)C [Example 7053] | 200 to 1000
COC(=O)c1cc2c(cc1O)c(C1CCCCC1)c(-c1ccoc1)n2CC(=O)N1CCC(N2CCCC2)CC1 [Example 7010] | 1000 to 10000
O=C(NS(=O)(=O)c1ccccc1)c1ccc2c(c1)c(C1CCCCC1)c(-c1ccoc1)n2CC(=O)N1CCC(N2CCCC2)CC1 [Example 7063] | 1000 to 10000
O=C(O)c1cc2c(cc1O)c(C1CCCCC1)c(-c1ccoc1)n2CC(=O)N1CCC(N2CCCC2)CC1 [Example 7007] | 1000 to 10000
